Where two headings read alike, the source gives them in different places.
What was measured:
[1] = MAD study in individuals with diabetes: safety and tolerability; assay type: in vivo, human
From the text: (§1) Studies are designed to evaluate the safety, tolerability, PD and PK of the GGG tri-receptor agonist (SEQ ID NO:1) in individuals with diabetes. The MAD study is a randomized, investigator- and participant-blind, placebo-controlled, multiple-ascending dose, single-site study conducted in individuals with diabetes (i.e., females or males aged 20-70 years, inclusive, with T2DM for at least 3 months and HbA1c at lead-in and screening of ≥7.0% and ≤10.5% and treated with diet and exercise alone or a stable dose of metformin for at least 3 months prior to screening, with stable body weight for 3 months prior to randomization and with a BMI of 23-50 kg/m^2 at screening).
(§2) Dose escalation of the GGG tri-receptor agonist is assessed over 12 weeks in cohorts with a starting dose of 0.5 mg. One cohort of 13 individuals is administered 0.5 mg for 12 weeks. A second cohort of 13 individuals is administered 1.5 mg for 12 weeks. A third cohort of 15 individuals is administered 3.0 mg for 12 weeks. A fourth cohort of 15 individuals is administered 3.0 mg for 4 weeks and then administered 6.0 mg for 8 weeks. A fifth cohort of 16 individuals is administered 3.0 mg for 2 weeks, administered 6.0 mg for 2 weeks, administered 9.0 mg for 4 weeks, and then administered 12 mg for 4 weeks. Alternate dose increment steps may be introduced based on emerging safety and tolerability data from the preceding cohorts, and the dose increment steps can be reduced. As a non-limiting example, in Cohort 4, escalation from starting dose of 3 mg may occur via a step-through dose of 4.5 mg before attaining 6 mg, in Cohort 5, escalation from starting dose of 3 to 12 mg may occur via an additional step through dose level of 4.5 mg, prior to the planned doses 6 and 9 mg. In addition to these proposed alternate regimens in Cohort 4 and Cohort 5, planned dose for escalation between cohorts and within cohorts may be further reduced if warranted by safety or tolerability data.
In the event of drug hypersensitivity reactions (immediate or nonimmediate), samples are collected for antidrug antibody (ADA) analysis as close to the onset of the event as possible, at the resolution of the event, and 30 days following the onset of the event. Samples are analyzed using a validated electrochemiluminescence immunosorbent assay at BioAgilytix Labs (Durham, NC).

[2] = MAD study in individuals with diabetes: plasma pharmacokinetics; assay type: in vivo, human; settings: for AUC(0-inf) / Cmax / Tmax / half-life / CL/F: both sexes, human, plasma
From the text: as §1, §2
Blood samples are collected on Day 1 at pre-dose and at 12 hr, 24 hr, 48 hr (Day 2) and 72 hr post-dose, as well as at pre-dose on Days 7, 14 and 21, to determine plasma concentration of the GGG tri-receptor agonist. Blood samples also are collected on Day 29 at pre-dose and at 12 hr, 24 hr, 48 hr and 72 hr post-dose, as well as at pre-dose on Days 36, 43 and 50, to determine plasma concentration of the GGG tri-receptor agonist. Blood samples also are collected on Day 57 at pre-dose and at 12 hr, 24 hr, 48 hr and 72 hr post-dose, as well as at pre-dose on Days 64 and 71, to determine plasma concentration of the GGG tri-receptor agonist. Blood samples also are collected on Day 78 at pre-dose and at 12 hr, 24 hr, 48 hr and 72 hr post-dose, as well as at pre-dose on Day 85, to determine plasma concentration of the GGG tri-receptor agonist. Human plasma samples from individuals administered the GGG tri-receptor agonist are analyzed at Q2 Solutions (Ithaca, NY). Concentrations of the GGG tri-receptor agonist are assayed using a validated liquid chromatography high resolution mass spectrometry method, where the lower limits of quantification are 1 ng/ml or 3 ng/ml and the upper limit of quantification is 500 ng/mL.
Blood samples are likewise collected at Weeks 14 and 16 for PK analysis. As above, plasma concentrations are used to compute PK parameters using standard non-compartmental methods in a validated software program (Phoenix WinNonlin Version 8.1).

[3] = 12 mg, 3.0, 6.0, 9.0, 12.0 mg QW, Day 1
[4] = 12 mg, 3.0, 6.0, 9.0, 12.0 mg QW, Day 29
[5] = 12 mg, 3.0, 6.0, 9.0, 12.0 mg QW, Day 57
[6] = 12 mg, 3.0, 6.0, 9.0, 12.0 mg QW, Day 78

CC[C@H](C)[C@H](NC(=O)[C@H](Cc1ccccc1)NC(=O)[C@H](C)NC(=O)C(C)(C)NC(=O)[C@H](CCC(N)=O)NC(=O)[C@H](C)NC(=O)[C@H](CCCCNC(=O)COCCOCCNC(=O)CC[C@H](NC(=O)CCCCCCCCCCCCCCCCCCC(=O)O)C(=O)O)NC(=O)[C@H](CCCCN)NC(=O)[C@H](CC(=O)O)NC(=O)[C@H](CC(C)C)NC(=O)[C@](C)(CC(C)C)NC(=O)[C@@H](NC(=O)[C@H](CO)NC(=O)[C@H](Cc1ccc(O)cc1)NC(=O)[C@H](CC(=O)O)NC(=O)[C@H](CO)NC(=O)[C@@H](NC(=O)[C@H](Cc1ccccc1)NC(=O)[C@@H](NC(=O)CNC(=O)[C@H](CCC(N)=O)NC(=O)C(C)(C)NC(=O)[C@@H](N)Cc1ccc(O)cc1)[C@@H](C)O)[C@@H](C)O)[C@@H](C)CC)C(=O)N[C@@H](CCC(=O)O)C(=O)N[C@@H](Cc1ccc(O)cc1)C(=O)N[C@@H](CC(C)C)C(=O)N[C@@H](CC(C)C)C(=O)N[C@@H](CCC(=O)O)C(=O)NCC(=O)NCC(=O)N1CCC[C@H]1C(=O)N[C@@H](CO)C(=O)N[C@@H](CO)C(=O)NCC(=O)N[C@@H](C)C(=O)N1CCC[C@H]1C(=O)N1CCC[C@H]1C(=O)N1CCC[C@H]1C(=O)N[C@@H](CO)C(N)=O [GGG tri-receptor agonist, Y-Aib-QGTFTSDYSI-αMeL-LDKK((2-[2-(2-amino-ethoxy)-ethoxy]-acetyl)-(γGlu)-CO-(CH2)18-CO2H)AQ-Aib-AFIEYLLEGGPSSGAPPPS-NH2]
systolic blood pressure ([1]; 6.0 mg and 12.0 mg arms): dose-dependent decrease in systolic blood pressure | GI events (nausea, diarrhea, vomiting) ([1]; MAD study): mostly mild in severity and dose related | heart rate ([1]; MAD study): Dose-dependent increases in heart rate | tolerability ([1]; MAD study, 12 weeks QW): well tolerated | incidences of AEs ([1]; doses of ≥6.0 mg): increased incidences of AEs | safety concerns ([1]; multiple SC doses of 0.5 to 12.0 mg): no unexpected safety concerns | tolerability ([1]; once-weekly 0.5, 1.5 and 3.0 mg for 12 weeks): well tolerated | AUC (0-τ) and Cmax dose proportionality ([2]; 3.0, 6.0 and 12.0 mg, Week 12): increase in a dose-proportional manner | AUC(0-inf) ([2]; 0.5 mg, 0.5 mg QW, Day 1): 7180 ng·h/mL | Cmax ([2]; 0.5 mg, 0.5 mg QW, Day 1): 54.1 ng/mL | Tmax ([2]; 0.5 mg, 0.5 mg QW, Day 1): 48 h | AUC(0-inf) ([2]; 0.5 mg, 0.5 mg QW, Day 29): 14400 ng·h/mL | Cmax ([2]; 0.5 mg, 0.5 mg QW, Day 29): 118 ng/mL | Tmax ([2]; 0.5 mg, 0.5 mg QW, Day 29): 23.8 h | AUC(0-inf) ([2]; 0.5 mg, 0.5 mg QW, Day 57): 11800 ng·h/mL | Cmax ([2]; 0.5 mg, 0.5 mg QW, Day 57): 86.8 ng/mL | Tmax ([2]; 0.5 mg, 0.5 mg QW, Day 57): 36 h | AUC(0-inf) ([2]; 1.5 mg, 1.5 mg QW, Day 1): 22600 ng·h/mL | Cmax ([2]; 1.5 mg, 1.5 mg QW, Day 1): 228 ng/mL | Tmax ([2]; 1.5 mg, 1.5 mg QW, Day 1): 24 h | AUC(0-inf) ([2]; 1.5 mg, 1.5 mg QW, Day 29): 35900 ng·h/mL | Cmax ([2]; 1.5 mg, 1.5 mg QW, Day 29): 252 ng/mL | Tmax ([2]; 1.5 mg, 1.5 mg QW, Day 29): 24 h | AUC(0-inf) ([2]; 3 mg, 3.0 mg QW, Day 1): 33800 ng·h/mL | Cmax ([2]; 3 mg, 3.0 mg QW, Day 1): 290 ng/mL | Tmax ([2]; 3 mg, 3.0 mg QW, Day 1): 23.8 h | AUC(0-inf) ([2]; 3 mg, 3.0 mg QW, Day 29): 68100 ng·h/mL | Cmax ([2]; 3 mg, 3.0 mg QW, Day 29): 531 ng/mL | Tmax ([2]; 3 mg, 3.0 mg QW, Day 29): 12.2 h | AUC(0-inf) ([2]; 3 mg, 3.0 mg QW, Day 57): 66300 ng·h/mL | Cmax ([2]; 3 mg, 3.0 mg QW, Day 57): 562 ng/mL | Tmax ([2]; 3 mg, 3.0 mg QW, Day 57): 24 h | AUC(0-inf) ([2]; 3 mg, 3.0 mg QW, Day 78): 70100 ng·h/mL | Cmax ([2]; 3 mg, 3.0 mg QW, Day 78): 571 ng/mL | Tmax ([2]; 3 mg, 3.0 mg QW, Day 78): 12.2 h | half-life ([2]; 3 mg, 3.0 mg QW, Day 78, read-out: t½ (converted)): 137 h | AUC(0-inf) ([2]; 6 mg, 3.0, 6.0 mg QW, Day 1): 34500 ng·h/mL | Cmax ([2]; 6 mg, 3.0, 6.0 mg QW, Day 1): 292 ng/mL | Tmax ([2]; 6 mg, 3.0, 6.0 mg QW, Day 1): 24 h | AUC(0-inf) ([2]; 6 mg, 3.0, 6.0 mg QW, Day 29): 86400 ng·h/mL | Cmax ([2]; 6 mg, 3.0, 6.0 mg QW, Day 29): 711 ng/mL | Tmax ([2]; 6 mg, 3.0, 6.0 mg QW, Day 29): 12.1 h | AUC(0-inf) ([2]; 6 mg, 3.0, 6.0 mg QW, Day 57): 136000 ng·h/mL | Cmax ([2]; 6 mg, 3.0, 6.0 mg QW, Day 57): 1170 ng/mL | Tmax ([2]; 6 mg, 3.0, 6.0 mg QW, Day 57): 24 h | AUC(0-inf) ([2]; 6 mg, 3.0, 6.0 mg QW, Day 78): 137000 ng·h/mL | Cmax ([2]; 6 mg, 3.0, 6.0 mg QW, Day 78): 1060 ng/mL | Tmax ([2]; 6 mg, 3.0, 6.0 mg QW, Day 78): 24 h | half-life ([2]; 6 mg, 3.0, 6.0 mg QW, Day 78, read-out: t½ (converted)): 135 h | AUC(0-inf) [2, 3]: 31800 ng·h/mL | Cmax [2, 3]: 265 ng/mL | Tmax [2, 3]: 23.9 h | AUC(0-inf) [2, 4]: 150000 ng·h/mL | Cmax [2, 4]: 1320 ng/mL | Tmax [2, 4]: 23.8 h | AUC(0-inf) [2, 5]: 262000 ng·h/mL | Cmax [2, 5]: 2070 ng/mL | Tmax [2, 5]: 24 h | AUC(0-inf) [2, 6]: 293000 ng·h/mL | Cmax [2, 6]: 2410 ng/mL | Tmax [2, 6]: 23.9 h | half-life ([2]; 12 mg, 3.0, 6.0, 9.0, 12.0 mg QW, Day 78, read-out: t½ (converted)): 143 h | Tmax ([2]; MAD study, after dosing): 12 to 72 h | half-life ([2]; MAD study, read-out: mean half-life): ~144 h | half-life ([2]; subcutaneous, across all dose levels, read-out: geometric mean t½): 135 to 143 h | CL/F ([2]; 3.0 mg QW, Day 78): 0.713 mL/min | CL/F ([2]; 3.0, 6.0 mg QW, Day 78): 0.728 mL/min | CL/F ([2]; 3.0, 6.0, 9.0, 12.0 mg QW, Day 78): 0.683 mL/min
